# Experimental data from ChEMBL document CHEMBL1158378, “QSAR model for predicting radical scavenging activity of di(hetero)arylamines derivatives of benzo[b]thiophenes” (Eur J Med Chem, 2009).
# Tested on: Radical scavenging activity
# Assay: Antioxidant activity assessed as inhibition of DPPH radical formation
# Assay type: functional
row,pEC50,SMILES
1,2.29,Cc1sc2c(C)c(Nc3ccc(C#N)cc3)cc(C)c2c1C
2,3.98,COc1ccc(Nc2cc(C)c3c(C)c(C)sc3c2C)c(Br)c1
3,4.06,COc1ccc(Nc2csc3ccccc23)c(OC)c1
4,3.05,Cc1cc2c(C)c(C)sc2cc1Nc1ccccc1Br
5,3.69,COc1ccc(Nc2cc3sc(C)c(C)c3cc2C)c(Br)c1
6,2.1,Cc1sc2c(C)c(Nc3ccccn3)cc(C)c2c1C
7,4.07,COc1ccc(Nc2cc3sc(C)c(C)c3cc2C)c(OC)c1
8,3.81,COc1cc(Br)c(Nc2cc3sc(C)c(C)c3cc2C)cc1OC
9,2.43,Cc1sc2c(C)c(Nc3ccccc3Br)cc(C)c2c1C
10,3.89,COc1ccc(Nc2cc(C)c3c(C)c(C)sc3c2C)cc1
11,3.91,CCOC(=O)c1sc2ccccc2c1Nc1ccccc1O
12,2.91,Cc1cc2c(C)c(C)sc2cc1Nc1ccccc1I
13,2.39,Cc1cc2c(C)c(C)sc2cc1Nc1ccc(C=O)cc1
14,3.38,COc1cccc(Nc2cc3sc(C)c(C)c3cc2C)c1

# Tested on: Radical scavenging activity
# Assay: Antioxidant activity assessed as inhibition of DPPH radical formation by Hatano's method
# Assay type: functional
row,pEC50,SMILES
1,4.14,COc1ccc(Nc2cc3sc(C)c(C)c3cc2C)cc1
2,3.61,COc1ccc(Nc2c(C(=O)O)sc3ccccc23)c(OC)c1
3,4.26,COc1ccc(Nc2cccc3c(C)c(C)sc23)cc1OC
4,4.3,COc1ccc(Nc2cc3sc(C)c(C)c3cc2C)cc1OC
5,3.77,CCOC(=O)c1sc2ccccc2c1Nc1ccc(OC)cc1OC
6,2.5,Cc1sc2c(Nc3cccnc3)cccc2c1C
7,2.26,Cc1sc2c(Nc3ccccn3)cccc2c1C
8,4.3,COc1ccc(Nc2cccc3c(C)c(C)sc23)cc1
9,2.81,COc1cccc(Nc2cccc3c(C)c(C)sc23)c1
10,3.84,CCOC(=O)c1sc2ccccc2c1Nc1ccc(O)cc1O
11,3.81,Fc1ccccc1Nc1csc2ccccc12
12,1.84,Cc1sc2c(Nc3cccc(C#N)c3)cccc2c1C
